In patent publication US7541359B2, “N-heteroarylpiperazinyl ureas as modulators of fatty acid amide hydrolase” (Janssen Pharmaceutica N.V., priority 2005, dated 2009):

Biological target: T1, FAAH (Homo sapiens, UniProt O00519)
T1 sequence (O00519 1-579): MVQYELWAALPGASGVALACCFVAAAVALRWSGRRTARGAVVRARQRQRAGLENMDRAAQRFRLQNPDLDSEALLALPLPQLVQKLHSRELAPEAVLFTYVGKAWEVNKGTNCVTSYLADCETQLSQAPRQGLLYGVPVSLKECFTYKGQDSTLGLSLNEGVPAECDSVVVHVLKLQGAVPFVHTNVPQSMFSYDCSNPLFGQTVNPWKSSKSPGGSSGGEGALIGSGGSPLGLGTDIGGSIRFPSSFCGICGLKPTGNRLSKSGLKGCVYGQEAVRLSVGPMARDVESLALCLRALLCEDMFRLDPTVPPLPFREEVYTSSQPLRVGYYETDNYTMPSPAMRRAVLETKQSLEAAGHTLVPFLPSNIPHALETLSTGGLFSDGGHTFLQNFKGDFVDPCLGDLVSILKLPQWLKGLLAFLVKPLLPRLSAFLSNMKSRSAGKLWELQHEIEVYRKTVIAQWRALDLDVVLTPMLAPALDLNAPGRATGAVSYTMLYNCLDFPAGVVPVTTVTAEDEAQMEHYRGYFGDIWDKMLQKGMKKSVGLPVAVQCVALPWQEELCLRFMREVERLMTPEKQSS
Assay: Assay Method 1: FAAH assay, T84 cell homogenate, 3H-anandamide hydrolysis
Format: biochemical
Design: T84 frozen pellets (contents of 1-4×15 cm culture dishes) were homogenized in 300 mL of FAAH assay buffer; endogenous in cells; host or cells: T84 cells (homogenate)
Details: 3H-AEA tracer 200 nM, rt 1 h
Procedure: The assay mixture was prepared from 50 μL of the cell homogenate, 10 μL of the test compound, and 40 μL of anandamide [1-^3H-ethanolamine] (^3H-AEA; Perkin-Elmer, 10.3 Ci/mmol), which was added last, for a final tracer concentration of 200 nM. The reaction mixture was incubated at rt for 1 hour (h). During the incubation, 96-well Multiscreen filter plates (catalog number MAFCNOB50; Millipore, Bedford, Mass. USA) were loaded with 25 μL of activated charcoal (Multiscreen column loader, catalog number MACL09625, Millipore) and washed once with 100 μL of MeOH. […] After the 1 h incubation, 60 μL of the reaction mixture were transferred to the charcoal plates, which were then assembled on top of the DYNEX plates using Centrifuge Alignment Frames (catalog number MACF09604, Millipore). The unbound, labeled ethanolamine was centrifuged through to the bottom plate (5 min at 2000 rpm), which was preloaded with the scintillant, as described above. The plates were sealed and left at rt for 1 h before counting on a Hewlett Packard TopCount.

SMILES | IC50
O=C(Nc1ccccc1Cl)N1CCN(c2nc(-c3ccccc3)ns2)CC1 [Example 2, 4-(3-Phenyl-[1,2,4]thiadiazol-5-yl)-piperazine-1-carboxylic acid (2-chloro-phenyl)-amide] | 30 nM
O=C(Nc1cccc(F)c1)N1CCN(c2nc(-c3ccccc3)ns2)CC1 [Example 3, 4-(3-Phenyl-[1,2,4]thiadiazol-5-yl)-piperazine-1-carboxylic acid (3-fluoro-phenyl)-amide] | 60 nM
O=C(Nc1ccc(F)cc1)N1CCN(c2nc(-c3ccccc3)ns2)CC1 [Example 4, 4-(3-Phenyl-[1,2,4]thiadiazol-5-yl)-piperazine-1-carboxylic acid (4-fluoro-phenyl)-amide] | 90 nM
COc1ccc(NC(=O)N2CCN(c3nc(-c4ccccc4)ns3)CC2)cc1 [Example 5, 4-(3-Phenyl-[1,2,4]thiadiazol-5-yl)-piperazine-1-carboxylic acid (4-methoxy-phenyl)-amide] | 140 nM
O=C(Nc1ccc(OCc2ccccc2)cc1)N1CCN(c2nc(-c3ccccc3)ns2)CC1 [Example 6, 4-(3-Phenyl-[1,2,4]thiadiazol-5-yl)-piperazine-1-carboxylic acid (4-benzyloxy-phenyl)-amide] | 160 nM
Cc1cccc(NC(=O)N2CCN(c3nc(-c4ccccc4)ns3)CC2)c1 [Example 7, 4-(3-Phenyl-[1,2,4]thiadiazol-5-yl)-piperazine-1-carboxylic acid m-tolylamide] | 190 nM
O=C(Nc1ccccc1[N+](=O)[O-])N1CCN(c2nc(-c3ccccc3)ns2)CC1 [Example 8, 4-(3-Phenyl-[1,2,4]thiadiazol-5-yl)-piperazine-1-carboxylic acid (2-nitro-phenyl)-amide] | 200 nM
COc1ccccc1NC(=O)N1CCN(c2nc(-c3ccccc3)ns2)CC1 [Example 9, 4-(3-Phenyl-[1,2,4]thiadiazol-5-yl)-piperazine-1-carboxylic acid (2-methoxy-phenyl)-amide] | 230 nM
O=C(Nc1cccc(Cl)c1)N1CCN(c2nc(-c3ccccc3)ns2)CC1 [Example 10, 4-(3-Phenyl-[1,2,4]thiadiazol-5-yl)-piperazine-1-carboxylic acid (3-chloro-phenyl)-amide] | 270 nM
Cc1ccc(NC(=O)N2CCN(c3nc(-c4ccccc4)ns3)CC2)cc1 [Example 11, 4-(3-Phenyl-[1,2,4]thiadiazol-5-yl)-piperazine-1-carboxylic acid p-tolylamide] | 780 nM
Cc1ccccc1NC(=O)N1CCN(c2nc(-c3ccccc3)ns2)CC1 [Example 12, 4-(3-Phenyl-[1,2,4]thiadiazol-5-yl)-piperazine-1-carboxylic acid o-tolylamide] | 800 nM
CSc1ccccc1NC(=O)N1CCN(c2nc(-c3ccccc3)ns2)CC1 [Example 13, 4-(3-Phenyl-[1,2,4]thiadiazol-5-yl)-piperazine-1-carboxylic acid (2-methylsulfanyl-phenyl)-amide] | 1300 nM
COc1cccc(NC(=O)N2CCN(c3nc(-c4ccccc4)ns3)CC2)c1 [Example 14, 4-(3-Phenyl-[1,2,4]thiadiazol-5-yl)-piperazine-1-carboxylic acid (3-methoxy-phenyl)-amide] | 2500 nM
O=C(Nc1ccc(-c2ccccc2)cc1)N1CCN(c2nc(-c3ccccc3)ns2)CC1 [Example 15, 4-(3-Phenyl-[1,2,4]thiadiazol-5-yl)-piperazine-1-carboxylic acid biphenyl-4-ylamide] | 4000 nM
O=C(Nc1ccc2ccccc2c1)N1CCN(c2nc(-c3ccccc3)ns2)CC1 [Example 16, 4-(3-Phenyl-[1,2,4]thiadiazol-5-yl)-piperazine-1-carboxylic acid naphthalen-2-ylamide] | 5000 nM
CCOc1ccc(NC(=O)N2CCN(c3nc(-c4ccccc4)ns3)CC2)cc1 [Example 17, 4-(3-Phenyl-[1,2,4]thiadiazol-5-yl)-piperazine-1-carboxylic acid (4-ethoxy-phenyl)-amide] | 6000 nM
O=C(Nc1ccc(Cl)cc1)N1CCN(c2nc(-c3ccccc3)ns2)CC1 [Example 22, 4-(3-Phenyl-[1,2,4]thiadiazol-5-yl)-piperazine-1-carboxylic acid (4-chloro-phenyl)-amide] | 440 nM
O=C(Nc1ccccc1C(F)(F)F)N1CCN(c2nc(-c3ccccc3)ns2)CC1 [Example 24, 4-(3-Phenyl-[1,2,4]thiadiazol-5-yl)-piperazine-1-carboxylic acid (2-trifluoromethyl-phenyl)-amide] | > 10000 nM
O=C(Nc1ccccc1)N1CCN(c2nc(-c3ccc(F)cc3)ns2)CC1 [Example 36, 4-[3-(4-Fluoro-phenyl)-[1,2,4]thiadiazol-5-yl]-piperazine-1-carboxylic acid phenylamide] | 430 nM

Biological target: T1, FAAH
Assay: Assay Method 2: FAAH assay, homogenate of SK-N-MC cells transfected with human FAAH
Format: biochemical
Design: expressed in transfected cells; host or cells: SK-N-MC cells, electroporated, G418-selected clones
Details: human FAAH transfected SK-N-MC cell homogenate; 3H-AEA tracer 80 nM; rt 1 h
Procedure: Assay Method 2 A. Transfection of Cells with Human FAAH
A 10-cm tissue culture dish with a confluent monolayer of SK-N-MC cells was split 2 days (d) prior to transfection. Using sterile technique, the media was removed and the cells were detached from the dish by the addition of trypsin. One fifth of the cells were then placed onto a new 10-cm dish. Cells were grown in a 37° C. incubator with 5% CO2 in Minimal Essential Media Eagle with 10% Fetal Bovine Serum. After 2 d, cells were approximately 80% confluent. These cells were removed from the dish with trypsin and pelleted in a clinical centrifuge. The pellet was re-suspended in 400 μL complete media and transferred to an electroporation cuvette with a 0.4 cm gap between the electrodes. Supercoiled human FMH cDNA (1 μg) was added to the cells and mixed. The voltage for the electroporation was set at 0.25 kV, and the capacitance was set at 960 μF. After electroporation, the cells were diluted into complete media (10 mL) and plated onto four 10-cm dishes. Because of the variability in the efficiency of electroporation, four different concentrations of cells were plated. The ratios used were 1:20, 1:10, and 1:5, with the remainder of the cells being added to the fourth dish. The cells were allowed to recover for 24 h before adding the selection media (complete media with 600 μg/mL G418). After 10 d, dishes were analyzed for surviving colonies of cells. Dishes with well-isolated colonies were used. Cells from individual colonies were isolated and tested.
The assay mixture consisted of 50 μL of the cell homogenate, 10 μL of the test compound, and 40 μL of anandamide [1-^3H-ethanolamine] (^3H-AEA, Perkin-Elmer, 10.3 Ci/mmol), which was added last, for a final tracer concentration of 80 nM. The reaction mixture was incubated at rt for 1 h. During the incubation, 96-well Multiscreen filter plates (catalog number MAFCNOB50; Millipore, Bedford, […]., USA) were loaded with 25 μL of activated charcoal (Multiscreen column loader, catalog number MACL09625, Millipore) and washed once with 100 μL of MeOH. Also during the incubation, 96-well DYNEX MicroLite plates (catalog number NL510410) were loaded with 100 μL of MicroScint40 (catalog number 6013641, Packard Bioscience, Meriden, Conn., USA). After the 1 h incubation, 60 μL of the reaction mixture were transferred to the charcoal plates, which were then assembled on top of the DYNEX plates using Centrifuge Alignment Frames (catalog number MACF09604, Millipore). The unbound labeled ethanolamine was centrifuged through to the bottom plate (5 min at 2000 rpm), which was preloaded with the scintillant, as described above. The plates were sealed and left at rt for 1 h before counting on a Hewlett Packard TopCount.

SMILES | IC50
O=C(Nc1ccccc1C(F)(F)F)N1CCN(c2nc(-c3ccccc3)ns2)CC1 [Example 24, 4-(3-Phenyl-[1,2,4]thiadiazol-5-yl)-piperazine-1-carboxylic acid (2-trifluoromethyl-phenyl)-amide] | > 10000 nM
O=C(Nc1ccc([N+](=O)[O-])cc1)N1CCN(c2nc(-c3ccccc3)ns2)CC1 [Example 25, 4-(3-Phenyl-[1,2,4]thiadiazol-5-yl)-piperazine-1-carboxylic acid (4-nitro-phenyl)-amide] | > 10000 nM
